Values joined by “and” are separate entries in the source; they are usually repeats but may differ in a detail not shown here. Identical values can stand only once. Counter-ions that a name gives are not always drawn. Like-named read-outs stand apart in the source and are kept apart here.
How the values were obtained:
[1] = biological target: T1, SdeA (Legionella pneumophila subsp. pneumophila, UniProt Q5ZTK4); assay type: biochemical
[2] = biological target: T1, SdeA; experiment: biochemical
[3] = biological target: T1, SdeA; experiment: biochemical; remark: listed apart in the source

T1 sequence (Q5ZTK4 231-1190 limits assumed): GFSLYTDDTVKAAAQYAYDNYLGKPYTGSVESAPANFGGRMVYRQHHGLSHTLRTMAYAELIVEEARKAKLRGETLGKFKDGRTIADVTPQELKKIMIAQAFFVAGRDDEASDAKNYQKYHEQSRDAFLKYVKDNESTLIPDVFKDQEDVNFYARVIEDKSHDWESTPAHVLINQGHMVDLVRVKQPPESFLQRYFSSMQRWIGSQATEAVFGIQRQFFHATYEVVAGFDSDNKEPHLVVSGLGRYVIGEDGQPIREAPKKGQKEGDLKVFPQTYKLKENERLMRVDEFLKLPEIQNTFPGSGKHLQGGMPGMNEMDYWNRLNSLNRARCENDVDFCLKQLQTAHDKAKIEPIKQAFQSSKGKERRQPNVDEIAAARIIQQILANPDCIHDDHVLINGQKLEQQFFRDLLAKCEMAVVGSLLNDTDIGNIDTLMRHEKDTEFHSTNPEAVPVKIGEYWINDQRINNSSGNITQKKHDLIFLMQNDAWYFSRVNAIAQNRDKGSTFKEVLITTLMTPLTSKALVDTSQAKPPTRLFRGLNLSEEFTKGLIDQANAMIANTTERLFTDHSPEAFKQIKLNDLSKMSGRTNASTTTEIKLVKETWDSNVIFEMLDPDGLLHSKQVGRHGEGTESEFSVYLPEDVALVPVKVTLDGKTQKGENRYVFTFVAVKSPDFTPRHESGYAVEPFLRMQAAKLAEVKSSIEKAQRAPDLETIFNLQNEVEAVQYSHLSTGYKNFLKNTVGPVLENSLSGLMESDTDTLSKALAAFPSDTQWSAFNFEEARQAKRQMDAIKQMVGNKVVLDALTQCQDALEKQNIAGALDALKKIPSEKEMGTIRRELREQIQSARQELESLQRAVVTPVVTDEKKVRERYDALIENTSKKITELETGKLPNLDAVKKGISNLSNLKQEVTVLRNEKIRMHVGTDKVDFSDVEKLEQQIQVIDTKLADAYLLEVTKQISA

Row | Structure (SMILES) | inhibition at 5 µM [2] | IC50 ([3]; read-out: IC50) | further results
1 | NC(=O)c1cccc(N)c1 [3‐AB, 3‐aminobenzamide] |  |  | behaviour as potential positive control [1]: auto‐fluorescent
2 | O=C(O)C1=CC(=C(c2ccc(O)c(C(=O)O)c2)c2ccc(O)c(C(=O)O)c2)C=CC1=O [Aurintricarboxylic acid] | 96.3% |  | 
3 | O=[N+]([O-])[O-].O=[N+]([O-])[O-].[Cd+2] [Cd(NO3)2] |  | 29.8 µM | 
4 | CC(=O)OCC1=C(C(=O)O)N2C(=O)[C@@H](NC(=O)CCC[C@@H](N)C(=O)O)[C@H]2SC1 [Cephalosporin C zinc salt, cephalosporin C Zn^2+ salt] | 74.6% |  | IC50 ([3]; IC50): 0.221 µM and 0.2 µM; Inhibition [2]: 75%
5 | [Cl][Cu][Cl] [CuCl2] |  | 12.3 µM | 
6 | O=c1cc(-c2ccccc2)oc2c(O)c(O)ccc12 [Dihydroxyflavone] | 96.5% |  | 
7 | O=c1cc2c(=O)oc3cc(O)c(O)oc3c2c(O)c1O [Galloflavin potassium salt] | 92.4% |  | 
8 | [Cl-].[Cl-].[Mg+2] [MgCl2] |  |  | IC50 (μM) [3]: do not show any inhibitory effect and n.i
9 | [Cl][Mn][Cl] [MnCl2] |  |  | IC50 (μM) [3]: do not show any inhibitory effect and n.i
10 | [Cl][Ni][Cl] [NiCl2] |  | 67.1 µM | 
11 | CCCCCCCC(=O)ON1C(=O)CCC1=O [N‐succinimidyl octanoate] |  |  | inhibition of SdeA [1]: full inhibition
12 | O=[N+]([O-])[O-].O=[N+]([O-])[O-].[Pb+2] [Pb(NO3)2] |  | 43.6 µM | 
13 | O=c1c(O)c(-c2ccc(O)c(O)c2)oc2cc(O)cc(O)c12 [Quercetin dihydrate] | 52.2% |  | 
14 | N#CC(C#N)=C(N)/C(C#N)=C/c1cc(O)c(O)c(O)c1 [Tyrphostin A51] | 98.2% |  | 
15 | [Cl-].[Cl-].[Zn+2] [ZnCl2] |  | 0.46 µM and 0.3 µM | fold difference in IC50 between zinc and copper [3]: 40 fold

— PMC12596928 (Chembiochem, 2025)
